For data set [1] the following is noted: animal studies, ingestion; cited from earlier work.
The nature of data set [2]: Reduction of oxidized NDGA in methanolic solution by reducing agents, followed by chromatography. The conditions noted are these: reducing agent at 100 mg/ml in methanolic solution of oxidized NDGA.

Take `CC(Cc1ccc(O)c(O)c1)C(C)Cc1ccc(O)c(O)c1` (stereo not drawn) [NDGA, nordihydroguaiaretic acid]: the kidney toxicity result in data set [1] is “evidence of kidney toxicity”.

In the case of `O=C1O[C@H]([C@@H](O)CO)C(O)=C1O` [ascorbic acid], the “time to reduce oxidized NDGA” value in data set [2] was “approximately 1 minute”.

Regarding `O=S([O-])S(=O)[O-].[Na+].[Na+]` [sodium hydrosulfite], the “NDGA quinone remaining by chromatography after reduction” value in data set [2] was “still detectable”.

Values taken from US20050123560A1, “High purity and water dispersible extract and formulations of larrea tridentata leaf resin, and methods of making and using the same” (priority 2003, published 2005).
